Data on three molecules can be found in patent US10280146B2, “Pyrimidone compounds used as Lp-PLA2 inhibitors and pharmaceutical compositions thereof” (Shanghai Institute of Materia Medica, Chinese Academy of …, priority 2014, dated 2019).

Series [1] concerns the target T1, Lp-PLA2 (rabbit serum as the source of enzyme) (Oryctolagus cuniculus, UniProt G1SE06).
T1 construct: Rabbit Serum as the Source of Enzyme; from tissue; host or cells: rabbit serum
T1 sequence (G1SE06 22-423): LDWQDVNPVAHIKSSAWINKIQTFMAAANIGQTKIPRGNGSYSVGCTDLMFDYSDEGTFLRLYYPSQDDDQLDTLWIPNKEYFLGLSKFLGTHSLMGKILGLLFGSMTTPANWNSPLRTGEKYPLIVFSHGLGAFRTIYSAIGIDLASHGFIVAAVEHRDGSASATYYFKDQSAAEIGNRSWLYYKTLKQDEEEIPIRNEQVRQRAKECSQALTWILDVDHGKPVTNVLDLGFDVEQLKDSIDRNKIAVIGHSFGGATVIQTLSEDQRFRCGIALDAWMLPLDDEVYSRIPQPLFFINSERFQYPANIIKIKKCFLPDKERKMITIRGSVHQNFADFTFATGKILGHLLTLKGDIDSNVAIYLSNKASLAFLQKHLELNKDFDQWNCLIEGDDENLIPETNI
Put plainly: In vitro inhibitory activity on Lp-PLA2, rabbit serum as the source of enzyme (2-thio-PAF/DTNB). Conditions: read-out: Inhibitory ratio, % on Lp-PLA2 (rabbit serum as the source of enzyme). Type of series: biochemical. The protocol: (§1) 0.1M Tris-HCl, 1 mM EGTA, PH 7.2
(§2) Anhydrous ethanol was used as solvent to make a 25 mg/ml mother liquor. The solution was aliquoted, stored at −80° C. and diluted 900 times before use (about 50 μM of concentration)
(§3) 3) DTNB (5,5′-dithio-bis-(2-nitrobenzoic acid), Sigma, Lot D8130)
(§4) The solution was prepared just before use.
(§5) 4) Compound was dissolved in DMSO to a suitable concentration.
(§6) Lp-PLA2 activity was determined by using 2-thio-PAF as substrate. The thiol group produced upon the hydrolysis of 2-thio-PAF can react with DTNB to generate a yellow substance. The optical density at 414 nm can be detected to reflect Lp-PLA2 activity.
1.1 Determination of the Inhibitory Activity of the Compounds on Lp-PLA2 (Rabbit Serum as the Source of Enzyme) (In Vitro)
1) The corresponding reagents were added according to Table 1 and mixed uniformly by shaking.
(§7) 2) 10 μL of DTNB was added to each well.
(§8) 3) 150 μL of 2-thio-PAF was added to each well and shaken for 15 s on a microplate reader to mix the liquid in the well uniformly.

Series [2] concerns the target T2, Lp-PLA2 (human recombinant enzyme as the source of enzyme) (Homo sapiens, UniProt Q13093).
T2 sequence (Q13093 22-441): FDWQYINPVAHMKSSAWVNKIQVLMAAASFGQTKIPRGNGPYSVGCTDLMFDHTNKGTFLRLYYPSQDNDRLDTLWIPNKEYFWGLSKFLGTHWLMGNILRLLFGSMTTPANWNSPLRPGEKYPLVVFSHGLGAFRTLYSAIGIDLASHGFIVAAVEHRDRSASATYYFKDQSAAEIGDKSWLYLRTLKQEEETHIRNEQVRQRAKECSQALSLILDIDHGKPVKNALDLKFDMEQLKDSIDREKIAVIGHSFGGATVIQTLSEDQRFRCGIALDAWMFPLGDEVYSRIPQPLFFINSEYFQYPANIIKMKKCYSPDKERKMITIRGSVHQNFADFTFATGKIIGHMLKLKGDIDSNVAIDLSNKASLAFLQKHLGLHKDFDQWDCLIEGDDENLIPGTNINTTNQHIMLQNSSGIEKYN
Put plainly: In vitro inhibitory activity on Lp-PLA2, human recombinant enzyme (2-thio-PAF/DTNB). In kind it is biochemical. Conditions: read-out: inhibitory ratio, % on Lp-PLA2 (human recombinant enzyme as the source of enzyme). The procedure:
as §1, §2, §3, §4, §5, §6
1.2 Determination of the Inhibitory Activity of the Compounds on Lp-PLA2 (Human Recombinant Enzyme as the Source of Enzyme) (In Vitro)
1) The corresponding reagents were added according to Table 3 and mixed uniformly by shaking.
as §7, §8

The subject of series [3] is Lp-PLA2 (rat serum as the source of enzyme). Put plainly: In vitro inhibitory activity on Lp-PLA2, rat serum as the source of enzyme (2-thio-PAF/DTNB). Type of series: biochemical. The protocol:
as §1, §2, §3, §4, §5, §6
1.3 Determination of the Inhibitory Activity of the Compounds on Lp-PLA2 (Rat Serum as the Source of Enzyme (In Vitro)
1) The corresponding reagents were added according to Table 5 and mixed uniformly by shaking.
as §7, §8

Series [4] can be described thus: In vitro assay of S9 metabolic stability, human S9. In kind it is in vitro ADME. Conditions: for half-life at 0.1 μM: human, S9 fraction, pH 7.4. The protocol: (§9) 3.1.1 The Preparation of Tris/HCl(0.1 M, pH 7.4) Buffer
(§10) 12.12 g of TRIS (tris-hydroxymethyl aminomethane) was weighed, dissolved in 800 mL of water, and adjusted to pH 7.4 with HCl (2 M), and then the volume was adjusted to 1000 mL with water.
(§11) 3.1.2 The preparation of MgCl2
(§12) MgCl2 (100 mM) solution was prepared with 0.1 M Tris/HCl buffer, aliquoted and stored at −20° C. The incubation concentration of MgCl2 was 5.0 mM.
(§13) 3.1.3 The Preparation of NADPH
(§14) NADPH (10 mM) solution was prepared with 0.1 M Tris/HCl buffer, aliquoted and stored at −20° C. The incubation concentration of NADPH was 1.0 mM.
(§15) 3.1.4 The Preparation of S9
(§16) Human S9 (purchased from Reid Liver Disease Research (Shanghai) Co., Ltd.) was diluted 10 times with 0.1 M Tris/HCl and rat S9 (purchased from Reid Liver Disease Research (Shanghai) Co., Ltd.) was diluted 5 times with 0.1 M Tris/HCl, so that the incubation concentrations of human and rat S9 were equivalent to the incubation concentrations of the liver microsomes in the corresponding species (both incubation concentrations of liver microsomes in human and rats are 0.33 mg/mL).
(§17) 3.1.5 The Preparation of the Compounds to be Tested
The compound was dissolved in DMSO to obtain a stock solution at a concentration of 10 mM. The stock solution was diluted to 1 mM with DMSO and then diluted with 0.1% BSA-water to obtain a working solution at a concentration of 2 μM. In the incubation system, the working solution of 2 μM was diluted 20 times to a final concentration of 0.1 μM. The concentration of DMSO in the incubation system was ≤0.01%.
3.1.6 The Preparation of the Positive Control Compound
2 mM VIVID stock solution (purchased from Shanghai Beili Biotechnology Co., Ltd.) was diluted 50 times with the 2 μM working solution for the compounds to be tested. In the incubation system, the mixed working solution of VIVID and the compounds to be tested were diluted 20 times
S9 was incubated in a 96-well plate and each incubation system was 450 μL. […]

A short description of series [5]: In vitro assay of S9 metabolic stability, rat S9. In kind it is in vitro ADME. Conditions: S9 fraction, pH 7.4; rat S9, NADPH addition, 0.1 μM compound, 37° C. The procedure:
as §9, §10, §11, §12, §13, §14, §15, §16, §17
The compound was dissolved in DMSO to obtain a stock solution at a concentration of 10 mM. The stock solution was diluted to 1 mM with DMSO and then diluted with 0.1% BSA-water to obtain a working solution at a concentration of 2 μM. […]

For series [6], the system named is Lp-PLA2 in serum of SD rats. The experiment in a line: In vivo inhibition assay of Lp-PLA2 activity in SD rats, single administration. Also noted: species or system rat. To be noted: 50 mg/kg oral, serum 1-24 h. The protocol: Each group had 5 SD rats and 50 mg/kg test agents was administrated orally to the rats. […] Blood was collected from the orbits of the rats at 0 h before administration and at 1 h, 3 h, 5 h, 7 h and 24 h after administration and placed at room temperature for 30 minutes before centrifugation. Serum was collected and the Lp-PLA2 activity in serum was measured.

The mark [7] stands for this setting: 10 nM compound, — = no inhibitory activity.

In the case of `Cn1cc(-c2cc(OCc3cc(F)c(Oc4ccc(Cl)c(C(F)(F)F)c4)c(F)c3)nc(=O)n2C)cn1` [Example 21, 4-((4-(4-chloro-3-(trifluoromethyl)phenoxy)-3,5-difluorobenzyl)oxy)-1-methyl-6-(1-methyl-1H-pyrazolyl-4)pyrimidin-2(1H)-one], the inhibition at 0.01 µM came to 33.2% in series [1] (setting [7]) and 82.8% in series [2] (10 nM compound). Further, the inhibition at 0.1 µM in series [1] (100 nM compound) was found to be 65.4%; in series [2] (100 nM compound) it was 90.1%. Moreover, the “inhibitory ratio, % on Lp-PLA2 (rat serum as the source of enzyme)” value in series [3] (setting [7]) is 27.65%; in series [3] (100 nM compound), 82.48%. The values for the half-life at 0.1 μM in series [4] and in series [5] were above 1 h and 195 h, respectively. For the same molecule, in series [4] (statement covers human and rat S9), the “metabolism stability (in words)” value is given as “superior metabolism stability”.
Take `COc1cc(OCc2ccc(Oc3ccc(Cl)c(C(F)(F)F)c3)c(F)c2)nc(=O)n1C` [Example 66, 4-((4-(4-chloro-3-(trifluoromethyl)phenoxy)-3-fluorobenzyl)oxy)-6-methoxy-1-methylpyrimidin-2(1H)-one]: in series [6], the “activity of Lp-PLA2 in serum of the SD rats after a single administration” value is on record as “comparable to darapladib”.
`COc1cc(OCc2cc(F)c(Oc3ccc(Cl)c(C(F)(F)F)c3)c(F)c2)nc(=O)n1C` [Example 65, 4-((4-(4-chloro-3-(trifluoromethyl)phenoxy)-3,5-difluorobenzyl)oxy)-6-methoxy-1-methylpyrimidin-2(1H)-one]: the half-life at 0.1 μM in series [4] is 7.08 h; in series [5], 2.68 h.
